The values that follow come from ChEMBL document CHEMBL5550160, “Leveraging a rationally designed veliparib-based anilide eliciting anti-leukemic effects for the design of pH-responsive polymer nanoformulation” (Eur J Med Chem, 2024).

In experiment [1] the target is T1, Histone deacetylase 3 (Homo sapiens, UniProt O15379). The experiment is described as follows: Inhibition of HDAC3 (unknown origin) using p53 residues 379 to 382 [RHKK(Ac)] as fluorogenic substrate assessed as residual activity at 1.11 x 10^-6M (reference value: 103.08%). The conditions noted are these: dose 1.1 10^-6M.
T1 sequence (O15379 whole entry, the tested form may be a part): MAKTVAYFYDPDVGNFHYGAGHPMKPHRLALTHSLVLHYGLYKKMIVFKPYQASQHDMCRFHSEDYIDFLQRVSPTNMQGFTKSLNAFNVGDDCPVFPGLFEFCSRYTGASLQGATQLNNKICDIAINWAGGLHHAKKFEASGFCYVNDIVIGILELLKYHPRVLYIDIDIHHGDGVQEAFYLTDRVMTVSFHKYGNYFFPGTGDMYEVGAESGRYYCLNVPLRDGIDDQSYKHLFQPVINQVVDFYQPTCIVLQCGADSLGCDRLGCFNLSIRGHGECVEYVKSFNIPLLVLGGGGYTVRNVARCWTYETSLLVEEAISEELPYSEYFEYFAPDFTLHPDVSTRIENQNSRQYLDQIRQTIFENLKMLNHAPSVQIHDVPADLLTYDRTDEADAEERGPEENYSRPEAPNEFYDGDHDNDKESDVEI
The subject of experiment [2] is HL-60. The experiment is described as follows: Induction of autophagy in human HL-60 cells assessed as increase in autophagic flux by measuring increase in red-stained cells at 0.5 to 1 times IC50 by acridine orange staining based microscopic analysis. The experiment is classed as functional, cell-based.
The target in experiment [3] is Histone deacetylase 4 (Homo sapiens) (UniProt P56524). The experiment is described as follows: Inhibition of HDAC4 (unknown origin) assessed as residual activity at 4.12 x 10^-8M (reference value: 98.90%). The conditions noted are these: dose 4.12 10^-8M.
Histone deacetylase 4 (Homo sapiens), sequence (P56524 whole entry, the tested form may be a part): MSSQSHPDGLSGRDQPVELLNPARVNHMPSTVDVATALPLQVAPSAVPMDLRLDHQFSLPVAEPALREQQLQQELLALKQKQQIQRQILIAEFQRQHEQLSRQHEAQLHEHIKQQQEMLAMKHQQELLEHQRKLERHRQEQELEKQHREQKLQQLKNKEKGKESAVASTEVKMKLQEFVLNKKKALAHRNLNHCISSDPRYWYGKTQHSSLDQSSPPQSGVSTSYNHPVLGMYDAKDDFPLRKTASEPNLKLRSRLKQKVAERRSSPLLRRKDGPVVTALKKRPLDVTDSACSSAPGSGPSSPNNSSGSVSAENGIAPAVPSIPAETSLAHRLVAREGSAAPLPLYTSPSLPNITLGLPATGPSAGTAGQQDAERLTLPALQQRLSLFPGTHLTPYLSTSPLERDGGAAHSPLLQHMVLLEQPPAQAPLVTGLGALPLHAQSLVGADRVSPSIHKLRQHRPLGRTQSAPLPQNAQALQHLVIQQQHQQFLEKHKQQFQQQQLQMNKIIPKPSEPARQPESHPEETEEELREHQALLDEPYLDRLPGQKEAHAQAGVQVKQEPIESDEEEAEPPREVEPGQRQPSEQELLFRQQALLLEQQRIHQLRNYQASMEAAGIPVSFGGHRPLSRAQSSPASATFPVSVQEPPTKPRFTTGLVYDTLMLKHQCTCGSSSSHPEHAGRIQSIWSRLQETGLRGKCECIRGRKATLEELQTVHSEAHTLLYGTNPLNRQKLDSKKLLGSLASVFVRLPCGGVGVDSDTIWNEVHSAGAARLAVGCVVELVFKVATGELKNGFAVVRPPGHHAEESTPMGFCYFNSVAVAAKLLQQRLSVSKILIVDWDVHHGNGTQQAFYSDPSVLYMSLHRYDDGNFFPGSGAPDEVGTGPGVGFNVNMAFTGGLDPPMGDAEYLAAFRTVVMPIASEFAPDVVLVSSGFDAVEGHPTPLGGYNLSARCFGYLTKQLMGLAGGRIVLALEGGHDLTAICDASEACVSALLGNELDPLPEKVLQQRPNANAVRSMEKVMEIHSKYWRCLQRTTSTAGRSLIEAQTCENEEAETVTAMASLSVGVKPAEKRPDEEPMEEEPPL
Experiment [4] deals with HL-60. The experiment is described as follows: Induction of apoptosis in human HL-60 cells assessed as DNA fragmentation at 0.5 to 1 times IC50 by DAPI staining based microscopic analysis. The experiment is classed as functional, cell-based.
Experiment [5] has as its target T1, Histone deacetylase 3. In words: Inhibition of HDAC3 (unknown origin) using p53 residues 379 to 382 [RHKK(Ac)] as fluorogenic substrate assessed as residual activity at 1 x 10^-5M (reference value: 103.08%). The conditions noted are these: dose 1.0 10^-5M.
Experiment [6] concerns HL-60. In words: Induction of apoptosis in human HL-60 cells assessed as cell shrinkage at 0.5 to 1 times IC50 by DAPI staining based microscopic analysis. In kind it is functional.
In experiment [7] the target is T1, Histone deacetylase 3. In words: Inhibition of HDAC3 (unknown origin) using p53 residues 379 to 382 [RHKK(Ac)] as fluorogenic substrate assessed as residual activity at 4.57 x 10^-9M (reference value: 103.08%). The conditions noted are these: dose 4.57 10^-9M.
The target of experiment [8] is Histone deacetylase 5 (Homo sapiens) (UniProt Q9UQL6). The experiment is described as follows: Inhibition of HDAC5 (unknown origin) assessed as residual activity at 1.23 x 10^-7M (reference value: 100%). The conditions noted are these: dose 1.23 10^-7M.
Histone deacetylase 5 (Homo sapiens), sequence (Q9UQL6 whole entry): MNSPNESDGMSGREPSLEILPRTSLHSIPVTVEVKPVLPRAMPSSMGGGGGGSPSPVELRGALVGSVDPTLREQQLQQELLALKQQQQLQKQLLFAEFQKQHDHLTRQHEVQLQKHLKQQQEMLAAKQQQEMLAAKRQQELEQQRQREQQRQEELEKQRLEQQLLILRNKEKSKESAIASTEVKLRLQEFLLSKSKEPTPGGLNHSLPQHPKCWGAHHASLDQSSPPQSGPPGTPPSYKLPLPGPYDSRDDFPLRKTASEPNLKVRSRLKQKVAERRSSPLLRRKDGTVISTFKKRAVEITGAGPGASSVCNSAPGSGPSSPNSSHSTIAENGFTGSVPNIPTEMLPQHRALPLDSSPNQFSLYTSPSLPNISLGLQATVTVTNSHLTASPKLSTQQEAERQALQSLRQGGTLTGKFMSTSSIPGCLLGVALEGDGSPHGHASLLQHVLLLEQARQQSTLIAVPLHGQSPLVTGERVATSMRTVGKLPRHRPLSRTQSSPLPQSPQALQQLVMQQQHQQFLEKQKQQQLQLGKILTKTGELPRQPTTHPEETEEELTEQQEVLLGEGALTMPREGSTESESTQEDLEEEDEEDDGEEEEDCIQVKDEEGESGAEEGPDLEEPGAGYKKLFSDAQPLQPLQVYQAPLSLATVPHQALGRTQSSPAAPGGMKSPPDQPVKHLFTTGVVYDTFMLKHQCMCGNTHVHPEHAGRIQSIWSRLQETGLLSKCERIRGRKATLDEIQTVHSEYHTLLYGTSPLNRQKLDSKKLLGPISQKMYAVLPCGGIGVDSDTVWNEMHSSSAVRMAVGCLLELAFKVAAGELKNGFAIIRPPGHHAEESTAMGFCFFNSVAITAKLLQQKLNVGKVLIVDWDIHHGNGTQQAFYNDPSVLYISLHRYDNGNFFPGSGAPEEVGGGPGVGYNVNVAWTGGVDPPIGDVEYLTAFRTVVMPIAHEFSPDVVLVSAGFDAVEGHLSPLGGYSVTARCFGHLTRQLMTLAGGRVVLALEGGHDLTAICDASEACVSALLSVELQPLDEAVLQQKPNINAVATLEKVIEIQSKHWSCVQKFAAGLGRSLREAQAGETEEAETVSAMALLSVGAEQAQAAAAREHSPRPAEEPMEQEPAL
The subject of experiment [9] is HL-60. The experiment is described as follows: Induction of cell cycle arrest in G0/G1 phase in human HL-60 cells assessed as downregulation of p-AKT protein expression at 0.5 to 1 times IC50 by Western blot analysis. In kind it is functional, cell-based. Background: Immunoblotting shows a protein as a band on a membrane.
Experiment [10] addresses T2, Polyamine deacetylase HDAC10 (Homo sapiens) (UniProt Q969S8).
T2 sequence (whole entry): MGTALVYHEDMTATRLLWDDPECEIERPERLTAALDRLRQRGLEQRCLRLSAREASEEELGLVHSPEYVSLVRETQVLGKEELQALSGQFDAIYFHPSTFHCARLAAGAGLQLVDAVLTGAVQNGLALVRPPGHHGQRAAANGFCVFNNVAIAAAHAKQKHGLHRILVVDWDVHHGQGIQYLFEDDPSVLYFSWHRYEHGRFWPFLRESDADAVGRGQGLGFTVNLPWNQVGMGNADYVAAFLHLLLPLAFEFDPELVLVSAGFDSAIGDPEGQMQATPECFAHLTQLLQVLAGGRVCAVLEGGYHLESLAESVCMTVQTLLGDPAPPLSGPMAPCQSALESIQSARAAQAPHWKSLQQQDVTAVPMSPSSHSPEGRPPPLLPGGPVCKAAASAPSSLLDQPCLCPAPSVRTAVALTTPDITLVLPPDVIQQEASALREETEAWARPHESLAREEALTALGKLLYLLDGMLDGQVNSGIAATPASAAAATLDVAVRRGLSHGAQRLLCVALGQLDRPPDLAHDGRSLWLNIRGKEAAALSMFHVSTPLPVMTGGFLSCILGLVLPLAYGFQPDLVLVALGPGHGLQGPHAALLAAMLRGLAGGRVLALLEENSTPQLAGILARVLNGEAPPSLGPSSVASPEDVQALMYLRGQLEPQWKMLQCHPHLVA
In words: Inhibition of HDAC10 (unknown origin) assessed as residual activity at 5.08 x 10^-10M (reference value: 101.54%). The conditions noted are these: dose 5.08 10^-10M.

The next experiment concerns A549. In words: cells. The conditions noted are these: Homo sapiens. The experiment is classed as functional, cell-based.
Experiment [11] deals with Histone deacetylase 4 (Homo sapiens) (UniProt P56524). In words: Inhibition of HDAC4 (unknown origin) assessed as residual activity at 1 x 10^-5M (reference value: 98.90%). The conditions noted are these: dose 1.0 10^-5M.
Experiment [12] deals with T2, Polyamine deacetylase HDAC10 (Homo sapiens). In words: Inhibition of HDAC10 (unknown origin) assessed as residual activity at 4.57 x 10^-9M (reference value: 101.54%). The conditions noted are these: dose 4.57 10^-9M.
Experiment [13] deals with HL-60. In words: Downregulation of HDAC3 protein expression in human HL-60 cells at 0.5 to 1 times IC50 by Western blot analysis. In kind it is functional, cell-based.
Another experiment concerns K562. The experiment is described as follows: cells. The conditions noted are these: Homo sapiens.
Experiment [14] deals with HL-60. The experiment is described as follows: Downregulation of HDAC2 protein expression in human HL-60 cells at 0.5 to 1 times IC50 by Western blot analysis. In kind it is functional, cell-based.
The target in a further experiment is Histone deacetylase 1 (Homo sapiens, UniProt Q13547). In words: Inhibition of HDAC1 (unknown origin) using p53 residues 379 to 382 [RHKK(Ac)] as fluorogenic substrate assessed as residual activity at 4.57 x 10^-9M (reference value: 98.06%). The conditions noted are these: dose 4.57 10^-9M.
Histone deacetylase 1, sequence (Q13547 whole entry, the tested form may be a part): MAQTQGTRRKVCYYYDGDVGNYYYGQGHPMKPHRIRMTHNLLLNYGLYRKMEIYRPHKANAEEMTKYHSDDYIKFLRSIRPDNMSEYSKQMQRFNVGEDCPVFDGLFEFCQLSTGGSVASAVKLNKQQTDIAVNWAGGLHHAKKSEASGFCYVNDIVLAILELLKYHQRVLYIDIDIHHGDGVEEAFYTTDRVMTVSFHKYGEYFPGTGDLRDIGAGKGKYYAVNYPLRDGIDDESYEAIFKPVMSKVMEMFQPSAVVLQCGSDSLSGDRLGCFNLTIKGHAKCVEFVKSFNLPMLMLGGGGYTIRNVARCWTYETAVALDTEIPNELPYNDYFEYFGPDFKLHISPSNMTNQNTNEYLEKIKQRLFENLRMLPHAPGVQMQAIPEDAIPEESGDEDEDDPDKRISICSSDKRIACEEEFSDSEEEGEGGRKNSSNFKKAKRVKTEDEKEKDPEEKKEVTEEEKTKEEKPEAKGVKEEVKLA
Experiment [15] deals with Histone deacetylase 9 (Homo sapiens) (UniProt Q9UKV0). In words: Inhibition of HDAC9 (unknown origin) assessed as residual activity at 3.33 x 10^-6M (reference value: 97.55%). The conditions noted are these: dose 3.33 10^-6M.
Histone deacetylase 9 (Homo sapiens), sequence (Q9UKV0 whole entry): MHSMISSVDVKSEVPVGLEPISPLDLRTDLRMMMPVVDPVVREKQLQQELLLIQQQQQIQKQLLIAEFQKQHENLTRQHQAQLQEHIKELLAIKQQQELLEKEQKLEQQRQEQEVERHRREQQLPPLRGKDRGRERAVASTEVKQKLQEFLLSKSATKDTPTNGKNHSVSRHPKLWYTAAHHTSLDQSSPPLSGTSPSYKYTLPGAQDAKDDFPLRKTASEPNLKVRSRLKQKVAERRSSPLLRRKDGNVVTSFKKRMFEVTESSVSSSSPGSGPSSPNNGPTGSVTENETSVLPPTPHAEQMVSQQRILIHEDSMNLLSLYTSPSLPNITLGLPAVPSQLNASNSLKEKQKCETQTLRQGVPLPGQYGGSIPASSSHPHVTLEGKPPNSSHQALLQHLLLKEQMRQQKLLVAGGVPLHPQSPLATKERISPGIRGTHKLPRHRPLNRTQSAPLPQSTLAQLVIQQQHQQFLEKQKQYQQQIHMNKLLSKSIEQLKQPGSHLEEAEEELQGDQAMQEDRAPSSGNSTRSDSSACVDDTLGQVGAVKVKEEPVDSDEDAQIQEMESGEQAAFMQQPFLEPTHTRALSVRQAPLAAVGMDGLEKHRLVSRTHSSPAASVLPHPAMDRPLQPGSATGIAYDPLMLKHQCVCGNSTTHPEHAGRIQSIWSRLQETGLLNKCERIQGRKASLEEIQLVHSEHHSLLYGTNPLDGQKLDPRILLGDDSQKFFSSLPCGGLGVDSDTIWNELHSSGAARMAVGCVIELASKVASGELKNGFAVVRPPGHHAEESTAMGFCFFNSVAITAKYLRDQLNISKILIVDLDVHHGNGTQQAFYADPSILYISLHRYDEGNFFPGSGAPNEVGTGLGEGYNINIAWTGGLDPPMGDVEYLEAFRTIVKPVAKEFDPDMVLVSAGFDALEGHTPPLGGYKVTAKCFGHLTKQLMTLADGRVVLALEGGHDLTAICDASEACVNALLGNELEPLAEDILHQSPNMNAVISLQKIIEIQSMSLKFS
Experiment [16] has as its target T3, Histone deacetylase 8 (Homo sapiens) (UniProt Q9BY41).
T3 sequence (whole entry): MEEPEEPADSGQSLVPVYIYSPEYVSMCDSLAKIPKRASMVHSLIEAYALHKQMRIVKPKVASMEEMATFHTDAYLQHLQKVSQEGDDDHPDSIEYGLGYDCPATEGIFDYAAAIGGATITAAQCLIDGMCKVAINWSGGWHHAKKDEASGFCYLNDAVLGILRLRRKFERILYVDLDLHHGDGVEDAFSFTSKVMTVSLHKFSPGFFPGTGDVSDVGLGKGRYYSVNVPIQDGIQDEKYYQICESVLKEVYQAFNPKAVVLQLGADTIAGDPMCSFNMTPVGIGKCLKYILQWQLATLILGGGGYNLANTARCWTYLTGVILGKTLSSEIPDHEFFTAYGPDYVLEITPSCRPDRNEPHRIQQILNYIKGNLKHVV
In words: Inhibition of HDAC8 (unknown origin) assessed as residual activity at 3.70 x 10^-7M (reference value: 100%). The conditions noted are these: dose 3.7 10^-7M.

Activity calls are given as the source filed them. No cut-off for these calls is given here.

Description for A549: Antiproliferative activity against human A549 cells assessed as inhibition of cell growth by MTT assay
Description for K562: Antiproliferative activity against human K562 cells assessed as inhibition of cell growth by MTT assay

`NC(=O)c1cccc2[nH]c(-c3ccc(NCc4ccc(C(=O)Nc5ccccc5N)cc4)cc3)nc12`: the Activity at Histone deacetylase 3 [1] was 21.7%; in experiment [3], 96%; on Histone deacetylase 3 [5] it was 20.7%; at Histone deacetylase 3 [7] it was 111%; in experiment [8], 89.6%; in [10], 101%. The Activity in [11] turned out to be 127%; in experiment [12] it was 98.8%; on Histone deacetylase 1 it was 88.7%; in [15], 81%; in experiment [16], 99.5%. For the same compound, the outcome in the experiment with HL-60 [2], in the experiment with HL-60 [9], in the experiment with HL-60 [13] and in the experiment with HL-60 [14] was Active. Besides, the result with HL-60 [4] and with HL-60 [6] was inactive. In addition, the half-inhibitory concentration (IC50) with A549 is greater than 5 µM; with K562, 1.21 µM.

By IC50 is commonly meant the concentration at which inhibition is half-maximal.
